Data on one compound can be found in patent publication EP0337598A2, “Use of porphyrins and metalloporphyrins in the treatment of diseases caused by Human Immunodeficiency Viruses” (GEORGIA STATE UNIVERSITY FOUNDATION, INC., priority 1988, dated 1989).

The conditions of series [1]: mouse, cited from earlier work.
In series [2] the test system is LAV strain of HIV. Put plainly: Assay of anti-HIV activity: HIV production in infected MT-4 cells. To be noted: in the dark, result in words. Format: cell-based.
The conditions of series [3]: intravenous, rabbit; cited from earlier work.
For series [4] the following is noted: intravenous, cat; cited from earlier work.
For series [5] the following is noted: intravenous, rat; cited from earlier work.
Series [6] has as its system Herpes simplex virus (HSV) type 1, strain WT-51. Put plainly: Anti-HSV activity: virus infectivity in culture fluid of infected BS-C-40 monolayers by plaque method. Type of series: cell-based. To be noted: m.o.i. 0.01, 18 hours of incubation, result in words. The method, then: Herpes simplex virus (HSV) type 1, strain WT-51, and BS-C-40, an African green monkey kidney cell line, were used. HSV stock was prepared in BS-C-40 and the infectivity of the virus was measured on BS-C-40 monolayers by plaque method. Eagle's minimal essential medium (MEM) supplemented with 8% newborn calf serum was used as the culture medium and cells were incubated at 37°C in a humidified CO₂-incubator (5% CO₂, 95% air).
BS-C-40 monolayers were infected with HSV at the m.o.i. of 0.01 at 37°C for 1 hour and the monolayers were washed with MEM, and fresh culture medium was added. After 18 hours of incubation in the presence or absence of protoporpyrin, the virus infectivity in the culture fluid was measured by plaque method.
Two tenths ml aliquots of serially 10-fold diluted virus were inoculated onto confluent monolayer of cells in 35 mm plastic petridishes. After adsorption of the virus at 37°C for 1 hour, the monolayers were overlaid with 2 ml of MEM with 1% methylcellulose and 2% newborn calf serum. On day 3, the monolayers were stained with neutral red and plaque counts were made.

Molecules are shown by their SMILES. Structures can show the parent of a compound that is named as a salt. Where two headings read alike, the source gives them in different places.

In the case of `C=CC1=C(C)c2cc3[nH]c(cc4nc(cc5[nH]c(cc1n2)c(C)c5CCC(=O)O)C(CCC(=O)O)=C4C)c(C)c3C=C` [Protoporphyrin disodium salt], the LD₅₀ is reported as 1,028.6 mg/kg in series [1] (intraperitoneal); 347.3 mg/kg in series [1] (intravenous); > 25,000.0 mg/kg in series [1] (oral); 1,147.0 mg/kg in series [1] (subcutaneous); 220.0 mg/kg in series [3]; 215.5 mg/kg in series [4]. For the same compound, the LD₅₀ in series [5] is given as 240.3 mg/kg. Further, the “anti-HIV activity (antivirally active when production of HIV was reduced as compared with the control)” value in series [2] is “potent anti-HIV activity”. In addition, the anti-HSV activity result in series [6] is “no anti-HSV activity”.
